Measurements from ChEMBL document CHEMBL1201862, “PubChem BioAssay data set” (2004).
The source made the active and inactive calls.

What was measured:
[1] = target: Sphingosine 1-phosphate receptor 2 (Homo sapiens, UniProt O95136); experiment: Dose Response Cell Based Assay for Agonists of the S1P2 Receptor. [Related pubchem assays: 729, 736, 843 ]; format: functional
[2] = target: Ubiquitin carboxyl-terminal hydrolase BAP1 (Homo sapiens, UniProt Q92560); experiment: inhibition of BAP1 ubiquitin hydrolase activity – biochemical, dose response (AID 714); format: functional
[3] = HPDE-C7 pancreatic duct cell viability loss – fluorescence, HTS (AID 430); format: functional, cell-based; conditions: Homo sapiens
[4] = viability loss of HPDE-C7K cells – cell-based, fluorescence, HTS, primary screen (AID 431); format: functional; conditions: Homo sapiens
[5] = target: Heat shock protein HSP 90-alpha (Homo sapiens, UniProt P07900); experiment: Luminescence-based dose response biochemical high throughput screening assay for inhibitors of the Heat Shock Protein 90 (HSP90). [Related pubchem assays: 1831 (Summary AID.), 1846 (Confirmation screen.), 1789 (Primary screen.)]
[6] = target: T1, Tyrosine-protein phosphatase non-receptor type 7 (Homo sapiens, UniProt P35236); experiment: HePTP tyrosine phosphatase activity blockers – biochemical, absorbance, leukemia target, primary screen (AID 521); format: functional
T1 sequence (P35236 whole entry): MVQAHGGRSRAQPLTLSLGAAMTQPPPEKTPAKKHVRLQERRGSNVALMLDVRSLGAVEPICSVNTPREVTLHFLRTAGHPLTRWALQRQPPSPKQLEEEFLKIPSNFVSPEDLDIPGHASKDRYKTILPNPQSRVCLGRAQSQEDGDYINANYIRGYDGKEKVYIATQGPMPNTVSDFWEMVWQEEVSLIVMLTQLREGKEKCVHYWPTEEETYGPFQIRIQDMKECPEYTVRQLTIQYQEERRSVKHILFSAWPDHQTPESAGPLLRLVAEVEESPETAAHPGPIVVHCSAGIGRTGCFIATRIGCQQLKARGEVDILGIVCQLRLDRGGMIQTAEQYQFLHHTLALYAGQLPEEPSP

[7] = target: T2, Voltage-gated N-type calcium channel alpha-1B subunit/Amyloid beta A4 precursor protein-binding family A member 1 (Homo sapiens, UniProt Q00975+Q02410); format: protein assay
[8] = target: T2, Voltage-gated N-type calcium channel alpha-1B subunit/Amyloid beta A4 precursor protein-binding family A member 1; format: protein assay; remark: listed apart in the source
[9] = target: Bifunctional protein GlmU (Mycobacterium tuberculosis, UniProt P9WMN3); experiment: Inhibitors of Mycobacterial Glucosamine-1-phosphate acetyl transferase (GlmU). Secondary screen.; parameters: species or system Mycobacterium tuberculosis H37Rv
Bcl-2-related protein A1 [10] = target: T3, Bcl-2-related protein A1 (Mus musculus, UniProt Q07440); experiment: displacement of Bid BH3 peptide from Bfl-1 – biochemical, fluorescence polarization, FITC-Bid, mouse, primary screen (AID 432)
T3 sequence (Q07440 whole entry): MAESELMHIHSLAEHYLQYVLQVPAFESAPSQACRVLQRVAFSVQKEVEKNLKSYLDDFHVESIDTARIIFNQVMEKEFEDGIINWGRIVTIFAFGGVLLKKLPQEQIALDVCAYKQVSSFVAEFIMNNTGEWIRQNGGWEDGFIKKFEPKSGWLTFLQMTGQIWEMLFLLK

Bcl-2-related protein A1 [11] = target: T3, Bcl-2-related protein A1; experiment: small-molecule antagonists of Bfl-1/BH3 interaction – biochemical, TR-FRET, mouse Bfl-1, confirmation (AID 621);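 also: TR-FRET binding of GST-Bfl-1 to FITC-labelled Bid peptide via terbium antibody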
[12] = target: Dual specificity protein phosphatase 6 (Rattus norvegicus, UniProt Q64346); experiment: inhibition of rat DUSP6 enzyme activity – biochemical, in vitro, primary screen (AID 425)
[13] = blockers of HIV-1 envelope-mediated cell-cell fusion – cherry-pick, dose response (AID 652057); format: functional, cell-based
[14] = viability loss in CEM21 cells – cell-based, CellTiter-Glo luminescence, cherry-picked, cytotoxicity control for viral fusion inhibitor project, dose response (AID 652042); format: functional;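 also: potency for signal decrease meaning cytotoxicity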
[15] = blockers of HIV-1 ZM109 envelope-driven cell-cell fusion – HeLa effector, CEM target cells, luciferase, cherry-pick, dose response (AID 652058); format: functional, cell-based;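 also: luciferase signal from HIV-1 Env mediated cell-cell fusion of effector and target cells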
[16] = off-target signal loss in HeLa-CEM21 co-culture – HeLa F-luc CTL cells, cherry-picked, counter-screen for HIV-1 Env fusion inhibitor project, dose response (AID 652040); format: functional, cell-based;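 also: potency for signal decrease marking cytotoxic or nonspecific inhibition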
[17] = HIV-1 AD8 envelope cell-cell fusion blockers – cherry-pick, dose response (AID 652062); format: functional, cell-based;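 also: luciferase signal from cell-cell fusion driven by HIV-1 clade B AD8 Env; potency is for inhibitors of fusion seen as a drop in luminescence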

T2 sequence (Q00975 whole entry): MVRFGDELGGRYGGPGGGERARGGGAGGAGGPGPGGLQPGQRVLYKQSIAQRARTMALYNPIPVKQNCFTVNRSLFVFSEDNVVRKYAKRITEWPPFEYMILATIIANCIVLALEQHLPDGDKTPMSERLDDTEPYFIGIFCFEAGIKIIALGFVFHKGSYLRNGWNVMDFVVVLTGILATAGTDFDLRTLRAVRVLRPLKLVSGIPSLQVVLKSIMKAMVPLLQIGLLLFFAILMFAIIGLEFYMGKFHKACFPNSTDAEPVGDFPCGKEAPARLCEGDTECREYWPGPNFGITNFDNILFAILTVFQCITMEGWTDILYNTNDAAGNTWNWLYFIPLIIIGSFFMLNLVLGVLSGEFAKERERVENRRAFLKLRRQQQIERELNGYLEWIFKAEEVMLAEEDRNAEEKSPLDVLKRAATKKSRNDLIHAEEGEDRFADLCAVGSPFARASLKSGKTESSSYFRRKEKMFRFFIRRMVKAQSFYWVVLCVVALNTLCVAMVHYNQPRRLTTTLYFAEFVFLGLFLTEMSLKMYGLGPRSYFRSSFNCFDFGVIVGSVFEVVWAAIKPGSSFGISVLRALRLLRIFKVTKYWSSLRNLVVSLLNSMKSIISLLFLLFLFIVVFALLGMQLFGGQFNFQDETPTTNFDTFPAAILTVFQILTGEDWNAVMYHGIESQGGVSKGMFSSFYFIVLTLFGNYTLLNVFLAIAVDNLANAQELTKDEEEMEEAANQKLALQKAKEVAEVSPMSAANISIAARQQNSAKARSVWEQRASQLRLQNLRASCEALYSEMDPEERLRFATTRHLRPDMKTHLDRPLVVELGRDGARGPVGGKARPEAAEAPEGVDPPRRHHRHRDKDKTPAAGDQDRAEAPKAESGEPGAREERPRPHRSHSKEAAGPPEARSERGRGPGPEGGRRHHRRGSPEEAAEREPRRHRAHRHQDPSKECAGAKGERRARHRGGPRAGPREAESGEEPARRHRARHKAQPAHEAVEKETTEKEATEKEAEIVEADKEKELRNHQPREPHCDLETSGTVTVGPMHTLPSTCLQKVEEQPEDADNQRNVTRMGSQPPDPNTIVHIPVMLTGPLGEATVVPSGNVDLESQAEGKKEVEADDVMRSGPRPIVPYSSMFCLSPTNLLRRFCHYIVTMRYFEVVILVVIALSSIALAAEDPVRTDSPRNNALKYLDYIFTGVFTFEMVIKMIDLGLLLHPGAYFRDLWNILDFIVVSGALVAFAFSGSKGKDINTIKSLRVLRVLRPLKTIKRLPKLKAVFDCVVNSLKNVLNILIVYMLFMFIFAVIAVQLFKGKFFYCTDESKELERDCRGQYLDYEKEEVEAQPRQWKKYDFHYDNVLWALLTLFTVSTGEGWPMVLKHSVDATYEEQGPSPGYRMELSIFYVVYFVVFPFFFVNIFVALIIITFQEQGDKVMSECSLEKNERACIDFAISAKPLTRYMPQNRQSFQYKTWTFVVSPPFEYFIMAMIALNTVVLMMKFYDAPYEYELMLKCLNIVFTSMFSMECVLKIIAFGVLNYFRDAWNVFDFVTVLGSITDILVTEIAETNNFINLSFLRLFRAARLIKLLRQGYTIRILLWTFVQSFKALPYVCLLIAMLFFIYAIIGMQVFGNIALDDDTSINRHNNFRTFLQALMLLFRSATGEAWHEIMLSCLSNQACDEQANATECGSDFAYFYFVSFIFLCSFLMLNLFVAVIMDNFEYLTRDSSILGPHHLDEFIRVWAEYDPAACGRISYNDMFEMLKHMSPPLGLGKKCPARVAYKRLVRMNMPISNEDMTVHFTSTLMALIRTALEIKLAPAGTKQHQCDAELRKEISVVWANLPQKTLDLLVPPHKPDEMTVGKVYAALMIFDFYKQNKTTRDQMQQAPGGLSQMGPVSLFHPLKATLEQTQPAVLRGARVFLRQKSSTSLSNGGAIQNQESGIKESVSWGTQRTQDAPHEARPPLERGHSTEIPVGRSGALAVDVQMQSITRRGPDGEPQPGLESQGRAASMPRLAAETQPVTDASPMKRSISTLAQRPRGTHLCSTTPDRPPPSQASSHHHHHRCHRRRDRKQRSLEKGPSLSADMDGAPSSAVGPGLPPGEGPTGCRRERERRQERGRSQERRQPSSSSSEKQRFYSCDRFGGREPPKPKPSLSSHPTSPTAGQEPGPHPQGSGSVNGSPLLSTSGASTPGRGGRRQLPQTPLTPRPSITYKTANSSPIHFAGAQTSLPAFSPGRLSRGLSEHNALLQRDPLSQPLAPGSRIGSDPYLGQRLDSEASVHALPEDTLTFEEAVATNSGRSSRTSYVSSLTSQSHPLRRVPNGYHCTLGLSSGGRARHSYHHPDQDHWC
T2 sequence (Q02410 whole entry): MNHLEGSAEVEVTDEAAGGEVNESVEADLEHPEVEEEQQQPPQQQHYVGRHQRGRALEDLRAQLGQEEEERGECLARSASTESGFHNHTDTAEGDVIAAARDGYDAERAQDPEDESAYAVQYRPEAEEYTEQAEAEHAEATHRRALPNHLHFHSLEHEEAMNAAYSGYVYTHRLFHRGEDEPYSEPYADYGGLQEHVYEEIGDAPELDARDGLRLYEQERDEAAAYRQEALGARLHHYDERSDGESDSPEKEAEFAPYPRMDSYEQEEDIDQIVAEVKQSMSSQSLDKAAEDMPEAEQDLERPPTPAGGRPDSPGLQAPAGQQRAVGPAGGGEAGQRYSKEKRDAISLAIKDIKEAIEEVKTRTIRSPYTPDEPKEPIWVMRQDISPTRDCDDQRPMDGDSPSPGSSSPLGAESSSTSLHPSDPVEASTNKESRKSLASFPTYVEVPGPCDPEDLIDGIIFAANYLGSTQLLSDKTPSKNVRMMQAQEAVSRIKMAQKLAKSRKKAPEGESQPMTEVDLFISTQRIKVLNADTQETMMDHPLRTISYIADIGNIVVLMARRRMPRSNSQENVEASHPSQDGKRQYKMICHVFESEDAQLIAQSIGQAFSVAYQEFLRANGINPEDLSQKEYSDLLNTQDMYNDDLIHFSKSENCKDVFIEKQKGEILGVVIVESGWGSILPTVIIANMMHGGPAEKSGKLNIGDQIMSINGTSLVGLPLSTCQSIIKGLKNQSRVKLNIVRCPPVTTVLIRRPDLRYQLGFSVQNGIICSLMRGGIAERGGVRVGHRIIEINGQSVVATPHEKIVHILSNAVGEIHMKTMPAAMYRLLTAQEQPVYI
Sequence of Sphingosine 1-phosphate receptor 2 (O95136 whole entry): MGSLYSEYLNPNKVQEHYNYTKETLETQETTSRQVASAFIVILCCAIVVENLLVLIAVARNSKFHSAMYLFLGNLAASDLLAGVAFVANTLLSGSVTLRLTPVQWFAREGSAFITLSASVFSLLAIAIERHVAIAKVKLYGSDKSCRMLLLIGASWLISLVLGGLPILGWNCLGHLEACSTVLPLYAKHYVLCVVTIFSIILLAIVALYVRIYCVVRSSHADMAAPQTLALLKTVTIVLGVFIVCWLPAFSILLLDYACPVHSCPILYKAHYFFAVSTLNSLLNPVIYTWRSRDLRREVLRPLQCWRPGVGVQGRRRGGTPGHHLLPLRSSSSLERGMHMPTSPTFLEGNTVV
Sequence of Dual specificity protein phosphatase 6 (Q64346 whole entry, the tested form may be a part): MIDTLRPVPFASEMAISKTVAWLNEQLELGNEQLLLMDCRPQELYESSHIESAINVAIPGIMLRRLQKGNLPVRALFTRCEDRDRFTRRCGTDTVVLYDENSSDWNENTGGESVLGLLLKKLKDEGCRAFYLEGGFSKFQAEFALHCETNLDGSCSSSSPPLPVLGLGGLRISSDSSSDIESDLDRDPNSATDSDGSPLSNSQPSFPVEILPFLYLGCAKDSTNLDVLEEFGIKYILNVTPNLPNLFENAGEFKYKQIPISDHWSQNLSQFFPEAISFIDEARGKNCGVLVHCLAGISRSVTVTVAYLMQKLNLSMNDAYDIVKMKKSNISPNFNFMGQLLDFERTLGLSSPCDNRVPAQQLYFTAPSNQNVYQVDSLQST
Sequence of Ubiquitin carboxyl-terminal hydrolase BAP1 (Q92560 whole entry): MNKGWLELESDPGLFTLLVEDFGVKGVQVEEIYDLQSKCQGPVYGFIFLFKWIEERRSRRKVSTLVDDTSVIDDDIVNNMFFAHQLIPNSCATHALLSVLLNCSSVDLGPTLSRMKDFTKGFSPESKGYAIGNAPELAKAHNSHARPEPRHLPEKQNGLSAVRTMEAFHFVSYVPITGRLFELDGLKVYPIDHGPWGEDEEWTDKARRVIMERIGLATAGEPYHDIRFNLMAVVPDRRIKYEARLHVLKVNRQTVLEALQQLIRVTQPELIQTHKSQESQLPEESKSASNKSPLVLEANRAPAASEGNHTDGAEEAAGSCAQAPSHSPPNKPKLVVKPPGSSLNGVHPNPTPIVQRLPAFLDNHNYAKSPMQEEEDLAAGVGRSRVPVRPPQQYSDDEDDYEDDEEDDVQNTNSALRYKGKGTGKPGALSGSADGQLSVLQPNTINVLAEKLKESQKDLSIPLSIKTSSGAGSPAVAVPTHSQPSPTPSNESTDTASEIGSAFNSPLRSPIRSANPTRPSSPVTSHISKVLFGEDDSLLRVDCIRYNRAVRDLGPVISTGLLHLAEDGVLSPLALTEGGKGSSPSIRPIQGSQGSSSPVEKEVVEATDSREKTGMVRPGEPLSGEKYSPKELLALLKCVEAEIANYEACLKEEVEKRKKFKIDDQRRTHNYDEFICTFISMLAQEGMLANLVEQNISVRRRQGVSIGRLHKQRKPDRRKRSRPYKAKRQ

O=C(CCC(=O)N1CCc2ccccc21)Nc1ccccc1
EC50 [1]: > 50 µM (not active)

Cc1sc(NC(=O)CSc2nnc3scc(-c4ccccc4)n23)c(C#N)c1C
IC50 [2]: > 50 µM (not active) | EC50 [3]: 8.93 µM (active) | EC50 [4]: 8.96 µM (active)

CC(=O)Oc1ccc(Nc2ccccc2)cc1
IC50 [5]: 6.62 µM (active)

CC(C)(C#N)Nc1ccccc1
IC50 [6]: > 100 µM (not active)

N=C1/C(=C\c2ccc(-c3ccc(C(=O)O)cc3)o2)C(=O)N=C2SC=C(c3ccccc3)N12
IC50 [7]: 4.12 µM (active) | IC50 [8]: 29.2 µM (active) | IC50 [9]: 182 µM (active)

Cc1ccc(-c2nn3c(C)nnc3s2)cc1NC(=O)c1ccc(-c2ccc(Cl)cc2Cl)o1
IC50 (Bcl-2-related protein A1 [10]): > 100 µM (not active) | IC50 (Bcl-2-related protein A1 [11]): > 100 µM (not active) | IC50 [12]: > 10 µM (not active) | AC50 [13]: 6.5 µM (active) | AC50 [14]: 6.8 µM (active) | AC50 [15]: 4.6 µM (active) | AC50 [16]: 9.7 µM (active) | AC50 [17]: 5.1 µM (active)
